{
  "source": "patent EP4198025A1",
  "about": "“BENZIMIDAZOLE DERIVATIVES FOR THE TREATMENT AND PROPHYLAXIS OF INFECTIOUS DISEASES” (Eberhard Karls Universität Tübingen Medizinische Fakultät, priority 2021, dated 2023)",
  "key": {"[1]": {"assay": "Solubility estimate based on turbidity (OD600nm)", "type": "physicochemical", "quoted_text": "The activity in the primary assay is distinguished into influence on SurA (SurA inhibition = +; no SurA inhibiton = 0) or interference with Luciferase per se (no influence on Luc activity = 0; enhances Luc activity = +; reduces Luc activity = -)."}, "SurA [2]": {"biological_target": "T1, SurA (Escherichia coli, UniProt P0ABZ6)", "T1 sequence (P0ABZ6 21-428)": "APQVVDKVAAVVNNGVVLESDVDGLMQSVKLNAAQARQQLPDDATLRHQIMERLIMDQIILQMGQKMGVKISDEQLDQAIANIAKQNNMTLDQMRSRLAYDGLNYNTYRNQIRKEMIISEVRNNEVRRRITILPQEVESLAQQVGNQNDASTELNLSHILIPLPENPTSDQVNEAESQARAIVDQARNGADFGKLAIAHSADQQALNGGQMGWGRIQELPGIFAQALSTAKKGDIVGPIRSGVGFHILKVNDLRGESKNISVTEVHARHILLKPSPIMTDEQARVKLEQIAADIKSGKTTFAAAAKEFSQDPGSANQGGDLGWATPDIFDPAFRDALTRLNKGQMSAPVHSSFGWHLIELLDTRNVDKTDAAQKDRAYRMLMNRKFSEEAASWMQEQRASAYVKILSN", "assay": "biochemical", "type": "binding, E. coli", "protocol": "His-tagged SurA was labeled with the Monolith His-Tag Labeling Kit RED-tris-NTA (Nanotemper) according to the manufacturer's instructions.\nMicroscale thermophoresis measurements were performed in 40 mM HEPES pH 7.4, 0.05 % Tween-20 at 25°C with a Monolith NT.115 (NanoTemper) in standard capillaries."}, "SurA [3]": {"biological_target": "T1, SurA", "type": "binding, E. coli", "set-up": "key: An increase of the inflection points in the nanoDSF experiments is indicated by (+); a decrease by (-); no changes with (none); ambiguity with a question mark (?)", "conditions": "100 µM compound, 2 µM SurA, 40 mM HEPES pH 7.4", "protocol": "Nano Differential Scanning Fluorimetry (nanoDSF) measurements of the QHL (qualified hit list) compounds provided by the ELF were performed on a Tycho system (NanoTemper)."}, "HepG2 cells": {"tested_on": "HepG2 cells", "assay": "Cytotoxicity assay, LDH release", "type": "cell-based", "conditions": "500 µM compound", "protocol": "Cell cytotoxicity was evaluated monitoring the LDH release from HepG2 cells using the CytoTox 96® Non-Radio Cytotoxicity Assay (Promega) according to the manufacturer's instructions. […] After incubation, 25 µl were transferred into a fresh 96-well flat clear bottom plate and mixed with 25 µl CytoTox 96® Reagent. LDH release reactions were incubated 30 min at RT in the dark and 25 µl Stop Solution were added. LDH release was measured at 490 nm in a multiplate reader."}, "Luciferase": {"biological_target": "Luciferase (Photinus pyralis, UniProt P08659)", "sequence (P08659 whole entry)": "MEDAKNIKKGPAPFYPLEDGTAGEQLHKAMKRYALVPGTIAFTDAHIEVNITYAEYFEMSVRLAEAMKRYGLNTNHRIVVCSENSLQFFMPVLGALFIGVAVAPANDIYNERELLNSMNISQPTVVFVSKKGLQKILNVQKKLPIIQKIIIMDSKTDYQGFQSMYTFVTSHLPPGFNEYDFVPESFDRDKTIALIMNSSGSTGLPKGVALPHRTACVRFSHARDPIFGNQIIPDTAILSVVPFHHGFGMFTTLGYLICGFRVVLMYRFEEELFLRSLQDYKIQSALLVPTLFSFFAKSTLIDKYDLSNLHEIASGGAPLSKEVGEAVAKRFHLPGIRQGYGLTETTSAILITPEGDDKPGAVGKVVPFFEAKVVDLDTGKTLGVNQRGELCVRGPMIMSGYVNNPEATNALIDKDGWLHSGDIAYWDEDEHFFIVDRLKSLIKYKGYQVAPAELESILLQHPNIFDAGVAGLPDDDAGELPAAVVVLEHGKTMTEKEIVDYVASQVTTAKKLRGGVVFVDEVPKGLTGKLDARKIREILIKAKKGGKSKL", "assay": "Primary assay buffer control without SurA: interference with Luciferase per se", "type": "biochemical, firefly", "set-up": "key: no influence on Luc activity = 0; enhances Luc activity = +; reduces Luc activity = -", "protocol": "In short, the Luciferase based SurA activity assay was performed in SurA Activity Assay Buffer (40 mM HEPES pH 7.4, 20 mM MgSO4, 0.5 g/l BSA). SurA aliquots were thawn at RT, activated by mild heat treatment and cooled down to RT for 10 min. SurA concentration was adjusted to 1.6 µM in Activity Assay Buffer (protein solution). Solution A containing 10 mM ATP as well as 0.3 mM Luciferin (Promega Beetle Luciferin, Potassium Salt) in water was prepared. Luciferase working solution was prepared by diluting 1 ml Luciferase working stock (100 nM) with 9 ml assay buffer. 33 µl of the protein solution were added to every 2nd row of a well of a 384-well PS, white, flat bottom plate. […] Subsequently, 2 µl of compound in DMSO were added in quadruplicates (4 wells each of protein solution and buffer controls). These compound solutions could contain either various compounds or different dilutions of the same compound allowing screening inhibitor activity in a dose dependent manner. After compound addition, plates were incubated 15 min at RT. After this incubation, 5 µl of Luciferase working solution were added to each well. […] Subsequently, the assay plate was cooled for 5 min at 4°C followed by 10 min incubation at RT prior to luminescence measurement. Luminescence was measured in a TECAN infinite M200 pro plate reader for each well individually after injection of 10 µl Solution A. […]"}, "SurA [4]": {"biological_target": "T1, SurA", "type": "biochemical, E. coli", "set-up": "key to primary assay SurA: SurA inhibition = +; no SurA inhibiton = 0", "source_text": "The biological function of SurA is to bind and to keep outer membrane proteins that have reached the periplasm in an unfolded but folding-competent state. The inventors' assay is based on this interaction and uses firefly Luciferase (fLuc) as a non-native substrate. […] This is exploited in the assay (Figure 3). The loss of tertiary structure of fLuc leads to the exposure of binding sites for SurA. It is known that SurA binds selectively to a special group of substrates. These substrates have in common the specific patterns of hydrophobic amino acids that are highly enriched in the beta strands of integral outer membrane proteins. These motifs are present in OMPs of all Gram-negative bacteria and in fLuc as well. Upon mild heat treatment of fLuc and its subsequent partial unfolding, fLuc is accepted as a substrate by SurA. Of note, these intermediates served as reporter substrates to determine the activity of a cytoplasmic folding chaperone. […] This interaction remains stable upon temperature reduction. Next, the temperature of the assay is reduced to room temperature and luciferase activity is subsequently measured by addition of Luciferin and ATP. In conditions without SurA, fLuc will refold into its active conformation resulting in a luminescence signal. […] In the case of presence of a SurA inhibitor (Figure 3 B), fLuc will adopt an active conformation resulting in an increased luminescence signal compared to conditions without SurA inhibition.\nIn short, the Luciferase based SurA activity assay was performed in SurA Activity Assay Buffer (40 mM HEPES pH 7.4, 20 mM MgSO4, 0.5 g/l BSA). SurA aliquots were thawn at RT, activated by mild heat treatment and cooled down to RT for 10 min. SurA concentration was adjusted to 1.6 µM in Activity Assay Buffer (protein solution). […] Subsequently, the assay plate was cooled for 5 min at 4°C followed by 10 min incubation at RT prior to luminescence measurement. Luminescence was measured in a TECAN infinite M200 pro plate reader for each well individually after injection of 10 µl Solution A."}, "E. coli ATCC 25922": {"tested_on": "E. coli ATCC 25922", "assay": "Minimal inhibitory concentration assay / Vancomycin sensitizer MIC assay", "type": "cell-based", "conditions": "Escherichia coli, ATCC25922", "source_text": "The intended effect of a SurA inhibitor should be the induction of a disturbance of the outer membrane composition resulting in an increased susceptibility to antibiotic treatment. Of note, Vancomycin is typically not used to treat infections with Gram-negative bacteria, because it is excluded by the OM and not efficient at concentrations that could be achieved in patients. However, at appropriate dosing in vitro it can be used to detect outer membrane defects. For determining a potential sensitizing effect of Vancomycin treatment, the inventors first tested whether the compounds at hand were bactericidal per se. Therefore, the inventors performed a minimal inhibitory concentration (MIC) assay. To this end, 5 ml overnight cultures of E. coli BW25113 (Keio-Collection reference strain), E. coli JW2496-3 (Keio-Collection single gene knockout for bamB, which suffers from decreased outer membrane integrity) and E. coli ATCC 25922 (a reference strain recommended for antibiotic susceptibility testing) were grown in Mueller Hinton Broth, Cation adjusted (MHB-II). […] After o/n incubation, bacterial growth was quantified by measuring the optical density at 600 nm wavelength in a multiplate reader. […] Of note, the bactericidal effect of Vancomycin was assessed similarly for each test strain using Vancomycin concentrations ranging from 512 - 0.25 mg/ml. […]"}, "SurA [5]": {"biological_target": "T1, SurA", "type": "binding, E. coli", "set-up": "key to nanoDSF pH 5 Ti#1 / nanoDSF pH 5 Ti#2 / nanoDSF pH 7.4 Ti#1 / nanoDSF pH 7.4 Ti#2: An increase of the inflection points in the nanoDSF experiments is indicated by (+); a decrease by (-); no changes with (none); ambiguity with a question mark (?)", "protocol": "To this end, 5 µl of a 2 mM compound solution in DMSO were mixed with 95 µl of a 20 µM SurA solution. Technical triplicate measurements were performed on a Prometheus system (NanoTemper)."}, "firefly Luciferase": {"biological_target": "firefly Luciferase (Photinus pyralis, UniProt P08659)", "sequence (P08659 whole entry)": "as above", "assay": "Luciferase interference deselection assay (D1) at the ELF", "type": "biochemical", "procedure": "The confirmed actives of ELF program ELFSC17_02 were tested as serial dilutions in the primary assay and deselection assay to generate dose response curves (DRCs). The serial dilutions consisted of 7 equidistant concentration steps (20 µM to 27.4 nM) and were tested in the primary and in the deselection assay in duplo (n=2) in 1536-well format. […] For the luciferase interference deselection assay in DRC-format, luciferase was left out in the Max effect wells, mimicking a 100% effect situation and resulting in a decreased signal. Compounds showing a signal decrease larger than 5 times the standard deviation (Z-score > 5) were identified as luciferase inducer. […] The ActivityBase application (IDBS) was used to analyze the data and to calculate quality parameters like Z-prime and Signal to Background ratio (S/B). For all compounds the % effect was calculated for all seven concentrations. ActivityBase was also used to calculate the pEC50 and Hill Slope. […] For compounds where no curve was fitted but reached >50% effect at 20 µM the Fit_Max was locked at 100% effect. For compounds where no curve was fitted but reached 100% effect at 20 µM and descended to <50% at 27 nM the Fit_Min was locked at 0%."}, "SurA [6]": {"biological_target": "T1, SurA", "assay": "biochemical", "type": "biochemical, E. coli", "source_text": "The biological function of SurA is to bind and to keep outer membrane proteins that have reached the periplasm in an unfolded but folding-competent state. The inventors' assay is based on this interaction and uses firefly Luciferase (fLuc) as a non-native substrate. […] The loss of tertiary structure of fLuc leads to the exposure of binding sites for SurA. It is known that SurA binds selectively to a special group of substrates. These substrates have in common the specific patterns of hydrophobic amino acids that are highly enriched in the beta strands of integral outer membrane proteins. These motifs are present in OMPs of all Gram-negative bacteria and in fLuc as well. Upon mild heat treatment of fLuc and its subsequent partial unfolding, fLuc is accepted as a substrate by SurA. Of note, these intermediates served as reporter substrates to determine the activity of a cytoplasmic folding chaperone. […] This interaction remains stable upon temperature reduction. Next, the temperature of the assay is reduced to room temperature and luciferase activity is subsequently measured by addition of Luciferin and ATP. In conditions without SurA, fLuc will refold into its active conformation resulting in a luminescence signal.\nOf note, the SurA activity assay was performed similar at the ELF but with optimizations in regard of the higher throughput including the change of the plate format to 1536-wells. The SurA activity assay performed at the ELF contained the following steps (adapted from the QHL report provided by the ELF). First, SurA was thawed at RT and heat activated in a water bath. Next, the vial was taken out of the water bath and cooled down to RT for 30 min @ bench. […] Noteworthy, the SurA solution was kept on ice. 15 nL of 4 mM compound in DMSO were added to columns 9-48 with Echo acoustic nano-dispenser (ECHO). Additionally, 15 nL 100% DMSO were transferred to columns 1-8 with ECHO. […] The plate was spun for 60 seconds at 1000 rpm to ensure proper fluid localization at the bottom of the wells. […] Again, the plate was centrifuged for 60 seconds at 1000 rpm. […] To allow refolding of the luciferase, the plate was incubated 30 minutes at RT."}},
  "note": "Like-named read-outs stand apart in the source and are kept apart here.",
  "data": [
    {"smiles": "CN(C)c1ccc(-c2nc3cc(NC(=O)Cn4cc5ccccc5n4)ccc3[nH]2)cc1", "note": "[QHL-24, N-(2-(4-(dimethylamino)phenyl)-1H-benzo[d]imidazol-5-yl)-2-(2H-indazol-2-yl)acetamide]", "values": [
      {"measurement": "solubility (in words)", "setting": "[1]", "value": "poor solubility"},
      {"measurement": "Kd", "setting": "SurA [2]", "value": "0.02 to 0.03", "unit": "mM"},
      {"measurement": "Re-evaluation (Tuebingen) MST score", "setting": "SurA [2]; re-evaluation of QHL compound remainders", "value": "inconclusive"},
      {"measurement": "Kd", "setting": "SurA [2]; read-out: MST (Kd in mM)", "value": "0.02 to 0.03", "unit": "mM"},
      {"measurement": "Re-evaluation (Tuebingen) nanoDSF (Tycho) Ti#1", "setting": "SurA [3]", "value": "none"},
      {"measurement": "Re-evaluation (Tuebingen) nanoDSF (Tycho) Ti#2", "setting": "SurA [3]", "value": "+"},
      {"measurement": "CytoTox (observation in the well)", "setting": "HepG2 cells", "value": "precipitate"},
      {"measurement": "CytoTox", "setting": "HepG2 cells; LDH release, 1 h at 37°C", "value": 7.87, "unit": "%"},
      {"measurement": "primary assay Luciferase", "setting": "Luciferase", "value": "-"},
      {"measurement": "SurA inhibition in the Luciferase-based SurA activity assay (in words)", "setting": "SurA [4]", "value": "very high SurA inhibition"},
      {"measurement": "Primary Assay ICmax", "setting": "SurA [4]; concentration of maximum SurA inhibition, dose response up to 250 µM, resynthesized/repurchased compounds", "value": "5 to 10", "unit": "µM"},
      {"measurement": "primary assay SurA", "setting": "SurA [4]; influence on SurA", "value": "+"},
      {"measurement": "MIC", "setting": "E. coli ATCC 25922", "value": "< 256", "unit": "µg/mL"},
      {"measurement": "thermal stability of SurA as detected by nanoDSF (in words)", "setting": "SurA [5]", "value": "affected the thermal stability of SurA"},
      {"measurement": "nanoDSF pH 7.4 Ti#1", "setting": "SurA [5]; 40 mM HEPES pH 7.4, 150 NaCl", "value": "none"},
      {"measurement": "nanoDSF pH 7.4 Ti#2", "setting": "SurA [5]; 40 mM HEPES pH 7.4, 150 NaCl", "value": "-"},
      {"measurement": "nanoDSF pH 5 Ti#1", "setting": "SurA [5]; 50 mM HAc pH 5", "value": "none"},
      {"measurement": "nanoDSF pH 5 Ti#2", "setting": "SurA [5]; 50 mM HAc pH 5", "value": "+"},
      {"measurement": "IC50", "setting": "firefly Luciferase", "value": 38, "unit": "µM"},
      {"measurement": "Deselection (D1) plC50", "setting": "firefly Luciferase; Luciferase interference, 7 concentration steps 20 µM to 27.4 nM", "value": 4.42},
      {"measurement": "IC50", "setting": "SurA [6]", "value": 3.55, "unit": "µM"},
      {"measurement": "Primary assay (P1) % Effect", "setting": "SurA [6]; ELF library screen, 1536-well", "value": 151, "unit": "%"},
      {"measurement": "Primary assay (P1) Z-score", "setting": "SurA [6]; ELF library screen, 1536-well", "value": 191.97},
      {"measurement": "LipE", "setting": "SurA [6]; listed under calculated properties", "value": 1.39}
    ]}
  ]
}
